The values below come from US9206165B2, “Tetrazolo hydrazine derivatives and pharmaceutical composition comprising same as active ingredient for preventing or treating cancer” (INDUSTRY-ACADEMIC COOPERATION FOUNDATION, YEUNGNAM …, priority 2012, dated 2015).

In data set [1] the test system is MCF-7, MDA-Mb-231 and Zr-75 cell lines. Kind of data set: In vitro anti-cancer activity in human breast cancer cell lines, MTT (statements pooled over the three lines). Format: cell-based. Particulars: 1×10^−5, 1×10^−6 and 1×10^−7 M, 48 h. How it is done: (§1) Anti-cancer activities of the compounds f1-f15 on human breast cancer cell line were tested in ER positive (MCF-7) and […] cell lines. The human breast cancer cell lines MCF-7 and MDA-MB-231 were cultured in Dulbecco's Modified Eagle's Medium (DMEM) supplemented with 10% fetal bovine serum (FBS) (HyClone Laboratories, Logan, Utah, USA) and 1% penicillin: streptomycin (Invitrogen, Carlsbad, Calif., USA) in 12 well plates. The test compounds f1-f15 were dissolved in DMSO and one microliter of the stock solution was used per milliliter of the culture to make a working concentration1 1×10^−5, 1×10^−6 and 1×10^−7 M. Each test includes control wells. The cell suspension was diluted to 1×10^4 cells/mL by adding fresh medium, and 1 mL of this suspension was added to the test and control wells. The plates were incubated at 37° C. under CO2 for 24 h. After incubation, the culture media was changed and cells were treated with […] of stock solution. Cells were incubated at 37° C. under CO2 for 48 h. The growth of the cells was checked with a low power microscope and MTT assay was used to confirm the viability. In the similar experiments, the ZR-75 cells were grown in RPMI 1640 (HyClone Laboratories, Logan, Utah, USA) supplemented with 10% fetal bovine serum (FBS) (HyClone Laboratories, Logan, Utah, USA) and 1% penicillin: streptomycin (Invitrogen, Carlsbad, Calif., USA).
(§2) The results for each compound are reported as percent growth (GP %) of treated cells compared to untreated controls. The inhibitory effects were detectable in compounds 2, 8, 10, 12 and 14 among the compounds f1-f15. […] The percent growth inhibition of compounds varied not only with the substituent groups but also with the nature of the cell line.

Data set [2] relates to breast cancer marker genes in MCF-7 cells. Kind of data set: Gene expression analysis by real time RT-PCR in MCF-7 cells. Format: cell-based, human. Particulars: mRNA. As to the method:
(§3) To investigate the various effects of various cell lines, the expression levels of different breast cancer marker genes were tested after treating the compounds.
(§4) Total RNA was extracted from the cells using Trizol™ reagent, stored in diethylpyrocarbonate-treated water at −80° C. until use. Total 2 μg of RNA was used for cDNA synthesis. All the primer used in examples of the present invention were designed with Primer 3 software (http://frodo.wi.mit.edu) using sequence information listed at NCBI. Following conditions were applied for the RT-PCR: pre-denaturation of the synthesized cDNA at 95° C. for 10 min followed by 40 cycles of denaturation at 95° C. for 33 s, annealing at each gene-specific primer Tm (° C.), and extension at 72° C. for 33 s. 1.2% of the agarose gel electrophoresis were used to verify the purity of the amplified genes.

Data set [3] has as its system breast cancer marker genes in MDA-MB-231 cells. Kind of data set: Gene expression analysis by real time RT-PCR in MDA-MB-231 cells. In kind it is cell-based, human. Particulars: mRNA. How it is done: as §3, §4
For orientation: Quantitative PCR measures a nucleic acid by following its amplification.

In another data set the test system is MDA-MB-231 cell line. As to the kind of experiment: In vitro anti-cancer activity, MTT, MDA-MB-231. In kind it is cell-based, human. The settings on record: ER negative MDA-MB-231; FIG. 2. How it is done: as §1, with “In the similar experiments, the ZR-75 cells were grown in RPMI 1640 (HyClone Laboratories, Logan, Utah, USA) supplemented with 10% fetal bovine serum (FBS) (HyClone Laboratories, Logan, Utah, USA) and 1% penicillin: streptomycin (Invitrogen, Carlsbad, Calif., USA).” left out

Another data set has as its system ZR-75 cell line. As to the kind of experiment: In vitro anti-cancer activity, MTT, ZR-75. Particulars: ER negative ZR-75; FIG. 2. In kind it is cell-based, human. As to the method:
as §1, with “In the similar experiments, the ZR-75 cells were grown in RPMI 1640 (HyClone Laboratories, Logan, Utah, USA) supplemented with 10% fetal bovine serum (FBS) (HyClone Laboratories, Logan, Utah, USA) and 1% penicillin: streptomycin (Invitrogen, Carlsbad, Calif., USA).” left out

Another data set deals with MCF-7 cells. As to the kind of experiment: In vitro anti-cancer activity, MTT, MCF-7. In kind it is cell-based, human. Particulars: ER positive MCF-7; FIG. 2. As to the method:
as §1, §2

As for `O=C(Cn1nnnc1-c1ccc2c(c1)OCO2)NN=Cc1ccc(Cl)cc1` [f1, 2-[5-(1,3-benzodioxol-5-yl)-1H-tetrazol-1-yl]-N′-[4-chlorophenyl-methylidene]acetohydrazide], the melting point – broadly, the temperature, or range, at which the solid turns liquid – is 206 to 208 °C.

As to `O=C(Cn1nnnc1-c1ccc2c(c1)OCO2)NN=Cc1ccccc1Cl` [f2, 2-[5-(1,3-benzodioxol-5-yl)-1H-tetrazol-1-yl]-N′-[(2-chlorophenyl)methylidene]acetohydrazide], the melting point lay within 198 to 200 °C. In addition, in data set [1] (FIG. 2), the “anti-proliferative activity / inhibitory effects” value was “excellent anti-proliferative activity”. Moreover, the “anti-proliferative activity / inhibitory effects” value in data set [1] (FIG. 2, listed as 2) was “detectable”. Moreover, in data set [2] (FIG. 3), the “expression of BAX” value is reported as “increased more than two fold” and the “expression of CD44” value was “increased”. In addition, in data set [3] (FIG. 4), the “expression of BRAC-1” value is given as “a minimum of two folds decrease”.

As to `CCOc1ccc(C=NNC(=O)Cn2nnnc2-c2ccc3c(c2)OCO3)cc1` [f3, 2-[5-(1,3-benzodioxol-5-yl)-1H-tetrazol-1-yl]-N′-[(4-ethoxyphenyl)methylidene]acetohydrazide], the melting point lay within 208 to 210 °C.

As for `COc1ccc(C=NNC(=O)Cn2nnnc2-c2ccc3c(c2)OCO3)cc1` [f4, 2-[5-(1,3-benzodioxol-5-yl)-1H-tetrazol-1-yl]-N′-[(4-methoxyphenyl)methylidene]acetohydrazide], the melting point lay in the range of 198 to 200 °C.

`O=C(Cn1nnnc1-c1ccc2c(c1)OCO2)NN=Cc1ccccc1` [f5, 2-[5-(1,3-benzodioxol-5-yl)-1H-tetrazol-1yl]-N′-[phenylmethylidene]acetohydrazide] registered a melting point of 204 to 206 °C.

`Cc1ccc(C=NNC(=O)Cn2nnnc2-c2ccc3c(c2)OCO3)cc1` [f6, 2-[5-(1,3-benzodioxol-5-yl)-1H-tetrazol-1-yl]-N′-[(4-methylphenyl)methylidene]acetohydrazide] displayed a melting point of 203 to 205 °C.

For the molecule `CCOc1ccccc1C=NNC(=O)Cn1nnnc1-c1ccc2c(c1)OCO2` [f7, 2-[5-(1,3-benzodioxol-5-yl)-1H-tetrazol-1-yl]-N′-[(2-ethoxyphenyl)methylidene]acetohydrazide], the melting point was in the range of 196 to 198 °C.

On to `COc1ccc(C=NNC(=O)Cn2nnnc2-c2ccc3c(c2)OCO3)cc1OC` [f8, 2-[5-(1,3-benzodioxol-5-yl)-1H-tetrazol-1-yl]-N′-[(3,4-dimethoxyphenyl)methylidene]acetohydrazide], for which the melting point was in the range of 200 to 202 °C. Besides, the “anti-proliferative activity / inhibitory effects” value in data set [1] (FIG. 2) is “excellent anti-proliferative activity”. The “anti-proliferative activity / inhibitory effects” value in data set [1] (FIG. 2, listed as 8) is listed as “detectable”. The “anti-proliferative effects in MDA-MB-231” value in the data set with MDA-MB-231 cell line is “more anti-proliferative effects”. The “anti-proliferative effects in ZR-75” value with ZR-75 cell line was “more anti-proliferative effects”. Moreover, in data set [2] (FIG. 3), the “expression of BAX” value is “increased more than two fold” and the “expression of CD44” value is on record as “increased”. For the same molecule, in data set [2] (FIG. 3, listed as 8), the “expression of CD44” value is reported as “increased about two fold”. In data set [3] (FIG. 4), the “expression of BRAC-1” value is reported as “a minimum of two folds decrease”. Besides, the “expression of BRAC-1” value in data set [3] (FIG. 4, listed as 8) is “highly suppressed”.

With `O=C(Cn1nnnc1-c1ccc2c(c1)OCO2)NN=Cc1ccccc1[N+](=O)[O-]` [f10, 2-[5-(1,3-benzodioxol-5-yl)-1H-tetrazol-1yl]-N′-[(2-nitrophenyl)methylidene]acetohydrazide], the melting point lay within 210 to 212 °C. In addition, in data set [1] (FIG. 2), the “anti-proliferative activity / inhibitory effects” value is “excellent anti-proliferative activity”. The “anti-proliferative activity / inhibitory effects” value in data set [1] (FIG. 2, listed as 10) is “detectable”. In addition, in the data set on MCF-7 cells, the “anti-proliferative effects on MCF-7 cells growth” value is “more anti-proliferative effects”. Besides, in data set [2] (FIG. 3), the “expression of BAX” value was “increased more than two fold” and the “expression of CD44” value is recorded as “increased”. The “expression of CD44” value in data set [2] (FIG. 3, listed as 10) is “increased about two fold”. Moreover, the “expression of BRAC-1” value in data set [3] (FIG. 4) was “a minimum of two folds decrease”.

Molecule `CCc1ccc(C=NNC(=O)Cn2nnnc2-c2ccc3c(c2)OCO3)cc1` [f11, 2-[5-(1,3-benzodioxol-5-yl)-1H-tetrazol-1-yl]-N′-[(4-ethylphenyl)methylidene]acetohydrazide] displayed a melting point of 200 to 202 °C.

In turn, `O=C(Cn1nnnc1-c1ccc2c(c1)OCO2)NN=Cc1cccc([N+](=O)[O-])c1` [f12, 2-[5-(1,3-benzodioxol-5-yl)-1H-tetrazol-1yl]-N′-[(3-nitrophenyl)methylidene]acetohydrazide] came in with a melting point of 208 to 210 °C. In addition, the “anti-proliferative activity / inhibitory effects” value in data set [1] (FIG. 2) is recorded as “excellent anti-proliferative activity”. Also, in data set [1] (FIG. 2, listed as 12), the “anti-proliferative activity / inhibitory effects” value is reported as “detectable”. Besides, the “anti-proliferative effects on MCF-7 cells growth” value in the data set with MCF-7 cells is reported as “more anti-proliferative effects”. Further, in data set [2] (FIG. 3), the “expression of BAX” value is “increased more than two fold” and the “expression of CD44” value was “increased”. Also, the “expression of BRAC-1” value in data set [3] (FIG. 4) is reported as “a minimum of two folds decrease”.

In turn, `O=C(Cn1nnnc1-c1ccc2c(c1)OCO2)NN=Cc1ccco1` [f13, 2-[5-(1,3-benzodioxol-5-yl)-1H-tetrazol-1-yl]-N′-[furan-2-ylmethylidene]acetohydrazide] came in with a melting point of 212 to 214 °C.

Molecule `O=C(Cn1nnnc1-c1ccc2c(c1)OCO2)N/N=C/c1ccc([N+](=O)[O-])cc1` [f14, 2-[5-(1,3-benzodioxol-5-yl)-1H-tetrazol-1-yl]-N′-[(E)-(4-nitrophenyl)methylidene]acetohydrazide] came in with a melting point of 204 to 206 °C. In data set [1] (FIG. 2), the “anti-proliferative activity / inhibitory effects” value was “excellent anti-proliferative activity”. Further, in data set [1] (FIG. 2, listed as 14), the “anti-proliferative activity / inhibitory effects” value is listed as “detectable”. In addition, the “anti-proliferative effects on MCF-7 cells growth” value in the data set with MCF-7 cells is “more anti-proliferative effects”. Also, in data set [2] (FIG. 3), the “expression of BAX” value was “increased more than two fold” and the “expression of CD44” value was “increased”. Besides, the “expression of BRAC-1” value in data set [3] (FIG. 4) is given as “a minimum of two folds decrease”.
